Reference: patent US12404265B2, “Substituted pyridine derivatives as SARM1 inhibitors” (Nura Bio, Inc., priority 2020, dated 2025)

Molecular target: T1, human SARM1(50-724) (Homo sapiens, UniProt Q6SZW1)
T1 construct: 40 nM human SARM1(50-724)
T1 sequence (Q6SZW1 50-724): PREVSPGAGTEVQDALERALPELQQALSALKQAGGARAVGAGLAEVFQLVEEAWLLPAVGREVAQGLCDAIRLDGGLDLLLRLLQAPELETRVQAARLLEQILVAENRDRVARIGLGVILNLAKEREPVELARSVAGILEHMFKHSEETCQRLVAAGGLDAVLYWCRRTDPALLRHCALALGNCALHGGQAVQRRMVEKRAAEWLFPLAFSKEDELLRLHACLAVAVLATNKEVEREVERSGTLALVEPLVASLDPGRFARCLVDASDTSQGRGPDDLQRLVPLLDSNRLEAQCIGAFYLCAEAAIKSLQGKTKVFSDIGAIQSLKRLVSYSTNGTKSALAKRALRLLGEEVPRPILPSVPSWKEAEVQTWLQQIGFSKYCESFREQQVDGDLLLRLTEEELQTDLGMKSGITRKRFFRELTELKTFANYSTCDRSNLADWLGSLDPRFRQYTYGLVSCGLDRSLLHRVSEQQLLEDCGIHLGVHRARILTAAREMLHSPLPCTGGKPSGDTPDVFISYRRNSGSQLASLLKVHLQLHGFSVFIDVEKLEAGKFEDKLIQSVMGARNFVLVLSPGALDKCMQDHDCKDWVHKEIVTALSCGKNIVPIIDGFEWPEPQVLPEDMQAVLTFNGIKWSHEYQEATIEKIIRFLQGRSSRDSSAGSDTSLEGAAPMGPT
Assay: SARM1 NADase biochemical assay (HPLC of NAD and NAM)
Conditions: 40 nM human SARM1(50-724), 0.3 mM NMN, 20 μM NAD, 60 minutes room temperature; dose-response from 100 μM, 1:3 dilution
Method in brief: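 Human SARM1(50-724) at 40 nM with 0.3 mM NMN, 20 μM NAD, 1 mM TCEP in 25 mM HEPES pH 7.4, 10 mM KCl, 10 mM MgCl2, 1% DMSO; 60 min at room temperature, formic acid quench. NAD and NAM quantified by reverse-phase HPLC peak area; single point 50 μM or 1:3 series from 100 μM.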

Row | Compound | IC50 [µM]
1 | Cc1c(NC(=O)OCc2ccc(Cl)s2)cnn1-c1ccncc1 [Example 149, (5-Chlorothiophen-2-yl)methyl (5-methyl-1-(pyridin-4-yl)-1H-pyrazol-4-yl)carbamate] | 1 to 10
2 | N[C@H](Cc1ccc(Cl)cc1)C(=O)Nc1cc(-c2ccncc2)n[nH]1 [Example 151, (R)-2-Amino-3-(4-chlorophenyl)-N-(3-(pyridin-4-yl)-1H-pyrazol-5-yl)propanamide] | < 1
3 | Cc1c(N2C(=O)[C@H](Cc3ccc(Cl)cc3)NC2(C)C)cnn1-c1ccncc1 [Example 152, (S)-5-(4-Chlorobenzyl)-2,2-dimethyl-3-(5-methyl-1-(pyridin-4-yl)-1H-pyrazol-4-yl)imidazolidin-4-one] | 1 to 10
4 | N[C@@H](Cc1ccc(Cl)cc1)C(=O)Nc1cc(-c2ccncc2)n[nH]1 [Example 153, (S)-2-Amino-3-(4-chlorophenyl)-N-(3-(pyridin-4-yl)-1H-pyrazol-5-yl)propanamide] | < 1
5 | O=C1N(Cc2ccc(Cl)cc2)CCN1c1cnn(-c2ccncc2)c1 [Example 158, 1-(4-Chlorobenzyl)-3-(1-(pyridin-4-yl)-1H-pyrazol-4-yl)imidazolidin-2-one] | 1 to 10
6 | O=C1N(Cc2ccc(Cl)cc2)CCCN1c1cnn(-c2ccncc2)c1 [Example 159, 1-(4-Chlorobenzyl)-3-(1-(pyridin-4-yl)-1H-pyrazol-4-yl)tetrahydropyrimidin-2(1H)-one] | 1 to 10
7 | S=C(NCc1ccc(Cl)cc1)Nc1cnn(-c2ccncc2)c1 [Example 160, 1-(4-Chlorobenzyl)-3-(1-(pyridin-4-yl)-1H-pyrazol-4-yl)thiourea] | 1 to 10
8 | Cc1c(-c2ccncc2)n[nH]c1NC(=O)NCc1ccc(Cl)cc1 [Example 161, 1-(4-Chlorobenzyl)-3-(4-methyl-3-(pyridin-4-yl)-1H-pyrazol-5-yl)urea] | < 1
9 | O=C(CCc1ccc(Cl)cc1)Nc1nnc(-c2ccncc2)[nH]1 [Example 162, 3-(4-Chlorophenyl)-N-(5-(pyridin-4-yl)-4H-1,2,4-triazol-3-yl)propanamide] | < 1
10 | O=C(NCc1cc(F)c(Cl)c(F)c1)Nc1cc(-c2ccncc2)n[nH]1 [Example 163, 1-(4-Chloro-3,5-difluorobenzyl)-3-(3-(pyridin-4-yl)-1H-pyrazol-5-yl)urea] | < 1
11 | O=C(NCc1cc(F)c(F)c(F)c1)Nc1cc(-c2ccncc2)n[nH]1 [Example 164, 1-(3-(Pyridin-4-yl)-1H-pyrazol-5-yl)-3-(3,4,5-trifluorobenzyl)urea] | < 1
12 | O=C(NCc1ccc(Cl)cc1)Nc1cc(-c2ccncc2)n[nH]1 [Example 165, 1-(4-Chlorobenzyl)-3-(3-(pyridin-4-yl)-1H-pyrazol-5-yl)urea] | < 1
13 | O=C(CCc1cc(F)c(F)c(F)c1)Nc1[nH]nc(-c2ccncc2)c1Cl [Example 167, N-(4-Chloro-3-(pyridin-4-yl)-1H-pyrazol-5-yl)-3-(3,4,5-trifluorophenyl)propanamide] | < 1
14 | O=C(NCc1ccc(Cl)cc1)Nc1[nH]nc(-c2ccncc2)c1Cl [Example 168, 1-(4-Chloro-3-(pyridin-4-yl)-1H-pyrazol-5-yl)-3-(4-chlorobenzyl)urea] | < 1
15 | COc1cnccc1-c1cc(NC(=O)CCc2ccc(Cl)cc2)[nH]n1 [Example 169, 3-(4-Chlorophenyl)-N-(3-(3-methoxypyridin-4-yl)-1H-pyrazol-5-yl)propanamide] | 1 to 10
16 | O=C(CCc1ccc(Cl)cc1)Nc1cc(-c2ccncc2F)n[nH]1 [Example 170, 3-(4-Chlorophenyl)-N-(3-(3-fluoropyridin-4-yl)-1H-pyrazol-5-yl)propanamide] | < 1
